“Also recorded” adds a separate entry of the source.
Tests used:
ct-DNA = test: Melting temperature (Tm) measurements of ct-DNA; assay type: binding, calf; conditions: r = [compound]/[ct-DNA] = 0.3, cacodylate buffer pH 7.0; Tm of free ct-DNA 74 °C; error ±0.5 °C
Description: The measurements were carried out by adding aliquots of DMSO stock solution of the tested compounds to the buffer solution (pH 7.0, 20 mM, cacodylate buffer, DMSO content of the final solution = 0.33–0.39%). Tm curves were collected at r = 0.3 (r = [compound]/[ct-DNA]) to assure the dominant binding mode. Thermal melting curves were plotted considering the absorption change at 260 nm as a function of temperature using a GBC Cintra10 UV–VIS spectrometer (Dandenong, Australia) equipped with a GBC Thermocell Peltier Power Supply (Dandenong, Australia) with the use of a 1-cm-path-length cell. The absorbance of the samples was monitored at 260 nm from 35 to 95 °C with a heating rate of 1 °C/min. Tm values are the midpoints or the transition curves determined from the maximum of the first derivative. ΔTm values were calculated by subtracting the Tm of the free nucleic acid from the Tm of the sample. All ΔTm values reported in the study were measured in triplicate. The error in ΔTm was ±0.5 °C.

HepG2 = test: In vitro cytotoxic activity, MTT assay; assay type: cell-based, human; conditions: concentration required to inhibit cell growth by 50%
Text: The in vitro cytotoxic activity of the obtained carborane-1,8-naphthalimide conjugates was investigated by examining their cytotoxic effects using the MTT (3–(4,5-dimethylthiazol-2-yl)-2,5-diphenyltetrazolium bromide) dye assay[38]^,[39] against the human cancer cell line HepG2 established from hepatocellular carcinoma (for compounds 12–19 and 30–37) and against human lung fibroblasts (MRC-5) (for compounds 34–37). The IC50 values—the drug concentration (µM) required to inhibit cell growth by 50%—determined for the synthesised compounds are summarised in Table 2.
The cytotoxic properties of the synthesised compounds were evaluated using the human hepatocellular carcinoma cell line (HepG2) and human lung fibroblasts (MRC-5). The HepG2 and MRC-5 cell lines were purchased from American Type Culture Collection (ATCC, Manassas, VA, USA). The HepG2 cells were propagated in Eagle’s minimal essential medium (EMEM, ATCC, Manassas, VA, USA), supplemented with 10% inactivated foetal bovine serum (FBS, Life Technologies, Warsaw, Poland) and 100 units/ml penicillin G with […] streptomycin (Life Technologies, Warsaw, Poland). The cells were incubated at 37 °C in a humidified atmosphere containing 5% CO2. Upon reaching 80–90% confluency, the cells were harvested with 0.25% trypsin in 1 mM EDTA (Life Technologies, Warsaw, Poland) and transferred to 96-well microplates at 2 × 10^4 cells/well. After overnight incubation of cells at 37 °C in a humidified atmosphere containing 5% CO2, the culture medium was removed and replaced with a freshly prepared solution of compounds in the culture medium or medium itself as the control group. The stock solutions of each compound were prepared in DMSO at a concentration of 100 mM and were diluted with the growth medium supplemented with 10% FBS to ensure drug dissolution to obtain concentrations ranging from 0.1 to 1000 µM. Cytotoxicity was evaluated using the MTT assay. After incubation with the compounds, the cells were treated with MTT dye solution (5 mg/ml) for 2 h and lysed with a solvent solution containing DMF (45 ml), sodium dodecylsulfate (13.5 g), and distilled water (55 ml). After overnight incubation at 37 °C, optical density at 550 nm, with a reference wavelength of 670 nm, was measured in an ELISA reader (VarioskanLux, Thermo Scientific, Waltham, MA, USA). All determinations were carried out in triplicate. Results were calculated as the percentage of control group viability. The IC50 values of the compounds were calculated in an Excel add-in ED50V10.

HepG2 cells [1] = test: Apoptosis/necrosis assay by flow cytometry (YO-PRO-1/PI); assay type: cell-based, human; conditions: HepG2, 24 h, YO-PRO1/PI; for early apoptotic cells: half and total IC50 concentrations tested
Description: Apoptosis/necrosis assay was carried out by double staining of cells with YO-PRO-1 (Thermo Fisher Scientific) and propidium iodide (PI, Sigma-Aldrich) fluorescent dyes. Briefly, HepG2 cells (2 × 10^5) were seeded onto 6-well plates. […] Subsequently, the cells were detached with trypsin (Thermo Fisher Scientific), washed twice with DPBS (1 ml) (Thermo Fisher Scientific), and stained with YO-PRO-1 (0.5 µM) and PI (10 µg/ml) according to the manufacturer’s protocol for 30 min at 37 °C in the dark. Immediately after staining, the cells were analysed with 488 nm excitation using a FACSCalibur flow cytometer (Becton Dickinson), and data were analysed using the FlowJo software (Becton Dickinson).

HepG2 cells [2] = test: Oxidative stress (ROS) measurement by flow cytometry (H2DCFDA); assay type: cell-based, human; conditions: HepG2, 24 h, total IC50 concentration
Description: The HepG2 cells were seeded (2 × 10^5 cells/well) onto 12-well plates and cultured in supplemented EMEM at 37 °C under 5% CO2 saturation until 70–80% confluency was reached. […] The intracellular ROS level was analysed by staining with H2DCFDA (ex/em: ∼492–495/517–527 nm) in accordance with the manufacturer’s protocol (Thermo Fisher Scientific, Waltham, MA, USA), wherein ROS trigger the fluorescence. The cells were separated by trypsin (Corning®) and washed twice with DPBS (1 ml, Capricorn). The pelleted cells were suspended in 0.5 ml of DPBS containing H2DCFDA at the final concentration of 0.5 µM. In order to eliminate dead cells from analysis, propidium iodide (10 µg/ml) was also added to the staining mix. The cells were then incubated at 37 °C for 30 min in the dark and then analysed with excitation at 488 nm using a FACSCalibur flow cytometer (Becton Dickinson, Franklin Lakes, NJ, USA), and the data were analysed using the FlowJo software (Becton Dickinson).

HepG2 cells [3] = test: Real-time cell migration assay (xCELLigence); assay type: cell-based, human; conditions: one-fourth and half of IC50, 24 h pre-treatment
Description: Transwell cell migration experiments were performed using an xCELLigence RTCA Analyser (Roche, Switzerland) in CIM plates (ACEA Biosciences, San Diego, CA, USA). Each well consisted of an upper and a lower chamber separated by a microporous polyethylene terephthalate membrane containing randomly distributed 8-µm pores. Prior to the migration assay, the HepG2 cells (2 × 10^4) were seeded onto 48-well plates containing the growth medium (EMEM) and incubated until 70–80% confluency at 37 °C in a humidified atmosphere containing 5% CO2. […] Then, 160 µl of complete growth medium (supplemented with 10% FBS) was added to the lower chamber, and 50 µl of serum-free growth medium was added to the upper chambers of the CIM plate. The plates were incubated at 37 °C under 5% CO2 saturation for 1 h prior to insertion into the xCELLigence platform. To initiate a transwell migration experiment, the cells were detached with trypsin (Corning®), resuspended in the serum-free growth medium, and seeded in the upper chamber at a density of 1 × 10^4 cells in 100 µl per well that was previously treated with the compounds. The impedance of the microelectrode array was monitored and converted to CI. Normalisation values were recorded using the RTCA Software 1.2.1. Readouts were performed every 30 min for 72 h.

Substance | ΔTm ct-DNA (ct-DNA) | IC50 (HepG2) | early apoptotic cells (HepG2 cells [1]) | ROS generation (green fluorescence intensity) (HepG2 cells [2]) | effect on migration of HepG2 cells (slope of cell index, first 24 h) (HepG2 cells [3]) | necrosis (PI positive cells) (HepG2 cells [1])
4-[(6-[(1,2-Dicarba-closo-dodecaborane-1-yl)ethylamino]hexyl)amino]-3-nitro-N-[2-(N-pyrrolidinyl)ethyl]-1,8-naphthalimide [Compound 36] | 10.00 °C | 3.63 ± 0.3 µM | 12.55% | weakest ROS inductor |  | 
4-[(6-[(1,2-Dicarba-closo-dodecaborane-1-yl)ethylamino]hexyl)amino]-N-[2-(dimethylamino)ethyl]-3-nitro-1,8-naphthalimide [Compound 34] | 11.67 °C | 4.78 ± 0.79 µM | 9.12% | increased approximately twofold | highest influence on the migration activity | 
4-[(6-[(1,7-Dicarba-closo-dodecaborane-1-yl)ethylamino]hexyl)amino]-3-nitro-N-[2-(N-pyrrolidinyl)ethyl]-1,8-naphthalimide [Compound 37] | 13.00 °C | 4.23 ± 0.82 µM | 12.56% | increased approximately twofold | highest influence on the migration activity | 
4-[(6-[(1,7-Dicarba-closo-dodecaborane-1-yl)ethylamino]hexyl)amino]-N-[2-(dimethylamino)ethyl]-3-nitro-1,8-naphthalimide [Compound 35] | 13.00 °C | 4.32 ± 0.71 µM | 6.7% | moderate effect | highest influence on the migration activity; also recorded: highest impairment | 55.75%
